This note sets out measurements from patent publication US20260327214A1, “1,3,4-OXADIAZOLE DERIVATIVE COMPOUNDS AS HISTONE DEACETYLASE 6 INHIBITOR, AND USES THEREOF” (CHONG KUN DANG PHARMACEUTICAL CORP., priority 2022, published 2026).

One assay deals with T1, human recombinant HDAC1 (Homo sapiens, UniProt Q13547).
T1 construct: purchased Enzo Life Science BML-SE456
Description: HDAC1 enzyme activity inhibition test (HDAC Fluorometric Drug Discovery Kit). In kind it is biochemical. Particulars: 30° C., 60 minutes, 10 μM substrate. As to the method: (§1) The following experiment was conducted to confirm the HDAC6 selectivity of the compound represented by Chemical Formula I of the present invention through the HDAC1 and HDAC6 enzyme activity inhibition test.
(§2) HDAC enzyme activity was measured using HDAC Fluorometric Drug Discovery Kit (BML-AK511, 516) manufactured by Enzo Life Science. For the HDAC1 enzyme activity test, human recombinant HDAC1 (BML-SE456) was used as an enzyme source and Fluor de Lys-®-″SIRT1 (BNL-KI177) was used as a substrate. The 5-fold diluted compound was dispensed in a 96-well plate, 0.3 μg of enzyme and 10 μM substrate were added to each well and reacted at 30° C. for 60 minutes, and Fluor de Lys® Developer II(BML-KI176) was added and reacted for 30 minutes to complete the reaction. Then, the fluorescence value (Ex 360, Em 460) was measured using a multiplate reader (Flexstation 3, Molecular Device). The HDAC6 enzyme was tested using the same protocol as the HDAC1 enzyme activity test method employing human recombinant HDAC6 (382180) from Calbiochem. For the final result, each […] value was calculated using the GraphPad Prism 4.0 program.

For another assay, the target named is T2, human recombinant HDAC6 (Homo sapiens, UniProt Q9UBN7).
T2 construct: purchased Calbiochem 382180
T2 sequence (Q9UBN7 1-1215): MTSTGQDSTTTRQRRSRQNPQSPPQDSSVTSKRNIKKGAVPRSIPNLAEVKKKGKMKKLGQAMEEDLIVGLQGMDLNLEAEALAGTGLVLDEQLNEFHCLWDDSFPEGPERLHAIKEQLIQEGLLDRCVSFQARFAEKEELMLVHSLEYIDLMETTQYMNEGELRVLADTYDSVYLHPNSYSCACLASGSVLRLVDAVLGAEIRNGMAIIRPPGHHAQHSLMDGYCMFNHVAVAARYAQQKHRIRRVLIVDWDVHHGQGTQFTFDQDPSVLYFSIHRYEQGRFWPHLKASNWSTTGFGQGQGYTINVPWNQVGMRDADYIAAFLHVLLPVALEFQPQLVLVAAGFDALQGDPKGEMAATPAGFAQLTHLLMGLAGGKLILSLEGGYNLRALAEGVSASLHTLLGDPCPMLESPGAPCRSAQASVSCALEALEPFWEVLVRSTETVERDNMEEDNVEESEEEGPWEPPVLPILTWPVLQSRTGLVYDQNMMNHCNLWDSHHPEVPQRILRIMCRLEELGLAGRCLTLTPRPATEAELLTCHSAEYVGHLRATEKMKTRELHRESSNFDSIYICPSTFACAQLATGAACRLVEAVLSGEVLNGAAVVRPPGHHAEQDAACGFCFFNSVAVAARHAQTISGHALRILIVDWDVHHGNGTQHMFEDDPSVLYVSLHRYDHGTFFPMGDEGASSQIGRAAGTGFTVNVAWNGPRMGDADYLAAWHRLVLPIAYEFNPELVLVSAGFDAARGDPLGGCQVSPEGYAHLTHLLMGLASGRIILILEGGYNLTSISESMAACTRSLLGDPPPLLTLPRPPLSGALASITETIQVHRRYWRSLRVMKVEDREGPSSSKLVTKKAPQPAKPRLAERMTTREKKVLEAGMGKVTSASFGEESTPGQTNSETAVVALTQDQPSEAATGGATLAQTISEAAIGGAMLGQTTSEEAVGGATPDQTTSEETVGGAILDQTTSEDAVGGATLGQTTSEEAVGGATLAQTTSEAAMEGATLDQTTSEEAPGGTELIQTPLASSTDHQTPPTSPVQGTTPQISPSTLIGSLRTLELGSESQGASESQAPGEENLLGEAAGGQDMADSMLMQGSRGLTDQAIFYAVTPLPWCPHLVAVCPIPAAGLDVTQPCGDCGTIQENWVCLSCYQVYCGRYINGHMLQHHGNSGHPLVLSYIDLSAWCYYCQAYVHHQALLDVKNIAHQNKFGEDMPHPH
Description: HDAC6 enzyme activity inhibition test (HDAC Fluorometric Drug Discovery Kit). In kind it is biochemical. Particulars: for HDAC6 selectivity (fold): HDAC6 over HDAC1; for IC50: human recombinant HDAC6, same protocol as HDAC1. The protocol: as §1, §2

Where only a bound is given, the exact number is not on record here.

T1 sequence (Q13547 whole entry): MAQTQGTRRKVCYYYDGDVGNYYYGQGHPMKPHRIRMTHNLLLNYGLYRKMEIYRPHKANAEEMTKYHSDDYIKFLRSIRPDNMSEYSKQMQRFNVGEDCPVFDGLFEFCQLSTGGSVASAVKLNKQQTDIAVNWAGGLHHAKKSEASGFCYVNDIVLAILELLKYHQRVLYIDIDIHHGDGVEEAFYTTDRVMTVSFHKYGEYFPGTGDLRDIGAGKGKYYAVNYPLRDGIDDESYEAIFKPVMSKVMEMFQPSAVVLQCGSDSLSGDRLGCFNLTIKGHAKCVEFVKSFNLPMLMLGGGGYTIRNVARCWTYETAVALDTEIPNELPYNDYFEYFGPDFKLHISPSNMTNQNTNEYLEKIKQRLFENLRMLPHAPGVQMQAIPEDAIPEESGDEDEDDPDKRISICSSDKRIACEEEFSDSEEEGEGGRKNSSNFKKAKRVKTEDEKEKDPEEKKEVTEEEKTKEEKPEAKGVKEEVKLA

Usually IC50 stands for the concentration needed to halve the response being measured. `CC(C)N1CCc2cc(-c3nn(Cc4ncc(-c5nnc(C(F)F)o5)cc4F)c(=S)o3)ccc2C1` [Compound 136, 3-[[5-[5-(difluoromethyl)-1,3,4-oxadiazol-2-yl]-3-fluoro-2-pyridyl]methyl]-5-(2-isopropyl-3,4-dihydro-1H-isoquinolin-6-yl)-1,3,4-oxadiazol-2-thione]: the IC50 on human recombinant HDAC1 was over 50000 nM. Besides, at human recombinant HDAC6, the “HDAC6 selectivity (fold)” value is reported as 840 fold and the IC50 came to 59.5 nM.
The matching figures for `Fc1cc(-c2nnc(C(F)F)o2)cnc1Cn1nc(-c2ccc(CN3CC[C@H](F)C3)cc2)oc1=S` [Compound 114, 3-[[5-[5-(difluoromethyl)-1,3,4-oxadiazol-2-yl]-3-fluoro-2-pyridyl]methyl]-5-[4-[[(3S)-3-fluoropyrrolidin-1-yl]methyl]phenyl]-1,3,4-oxadiazol-2-thione]: over 50000 nM, 824 fold and 60.7 nM.
In the case of `O=c1oc(-c2ccc3scnc3c2)nn1Cc1ccc(-c2nnc(C(F)F)o2)cn1` [Compound 18, 5-(1,3-benzothiazol-5-yl)-3-[[5-[5-(difluoromethyl)-1,3,4-oxadiazol-2-yl]-2-pyridyl]methyl]-1,3,4-oxadiazol-2-one], the concentration for half-maximal inhibition (IC50) on human recombinant HDAC1 was over 50000 nM. Also, on human recombinant HDAC6, the “HDAC6 selectivity (fold)” value was found to be 768 fold and the IC50 is 65.1 nM.
Regarding `CN(C)Cc1ccc(-c2nn(Cc3ncc(-c4nnc(C(F)F)o4)cc3F)c(=S)o2)s1` [Compound 128, 3-[[5-[5-(difluoromethyl)-1,3,4-oxadiazol-2-yl]-3-fluoro-2-pyridyl]methyl]-5-[5-[(dimethylamino)methyl]-2-thienyl]-1,3,4-oxadiazol-2-thione], the IC50 at human recombinant HDAC1 was over 50000 nM. Moreover, at human recombinant HDAC6, the “HDAC6 selectivity (fold)” value was 583 fold and the concentration for half-maximal inhibition (IC50) amounted to 85.7 nM.
The matching figures for `CC(C)N1CCC(c2cccc(-c3nn(Cc4ccc(-c5nnc(C(F)F)o5)cn4)c(=O)s3)c2F)CC1` [Compound 57, 3-[[5-[5-(difluoromethyl)-1,3,4-oxadiazol-2-yl]-2-pyridyl]methyl]-5-[2-fluoro-3-(1-isopropyl-4-piperidyl)phenyl]-1,3,4-thiadiazol-2-one]: over 50000 nM, 954 fold and 52.4 nM.
With `CNCc1ccc(-c2nn(Cc3ccc(-c4nnc(C(F)F)o4)cn3)c(=S)o2)cc1` [Compound 92, 3-[[5-[5-(difluoromethyl)-1,3,4-oxadiazol-2-yl]-2-pyridyl]methyl]-5-[4-(methylaminomethyl)phenyl]-1,3,4-oxadiazol-2-thione], on human recombinant HDAC1, the 50% inhibitory concentration (IC50) was over 50000 nM. For the same compound, at human recombinant HDAC6, the “HDAC6 selectivity (fold)” value came to 3185 fold and the half-inhibitory concentration (IC50) amounted to 15.7 nM.
Regarding `CCN1CCN(c2cccc(-c3nn(Cc4ccc(-c5nnc(C(F)F)o5)cn4)c(=S)o3)n2)CC1` [Compound 100, 3-[[5-[5-(difluoromethyl)-1,3,4-oxadiazol-2-yl]-2-pyridyl]methyl]-5-[6-(4-ethylpiperazin-1-yl)-2-pyridyl]-1,3,4-oxadiazol-2-thione], on human recombinant HDAC1, the IC50 was over 50000 nM. Also, on human recombinant HDAC6, the “HDAC6 selectivity (fold)” value is 2049 fold and the IC50 amounted to 24.4 nM.
On to `CC1CC(N2CCC(c3cccc(-c4nn(Cc5ccc(-c6nnc(C(F)F)o6)cn5)c(=O)o4)c3)CC2)C1` (stereo not drawn) [Compound 10, 3-[[5-[5-(difluoromethyl)-1,3,4-oxadiazol-2-yl]-2-pyridyl]methyl]-5-[3-[1-(3-methylcyclobutyl)-4-piperidyl]phenyl]-1,3,4-oxadiazol-2-one], for which the IC50 on human recombinant HDAC1 is over 50000 nM. On human recombinant HDAC6, the “HDAC6 selectivity (fold)” value worked out at 666 fold and the IC50 worked out at 75.1 nM.
`CN1CCN(c2cccc(-c3nn(Cc4ccc(-c5nnc(C(F)F)o5)cn4)c(=S)o3)c2)CC1` [Compound 75, 3-[[5-[5-(difluoromethyl)-1,3,4-oxadiazol-2-yl]-2-pyridyl]methyl]-5-[3-(4-methylpiperazin-1-yl)phenyl]-1,3,4-oxadiazol-2-thione]: the IC50 on human recombinant HDAC1 is over 50000 nM. Moreover, on human recombinant HDAC6, the “HDAC6 selectivity (fold)” value was 1149 fold and the IC50 stood at 43.5 nM.
